Like-named read-outs stand apart in the source and are kept apart here.
Assays:
PI3Kδ = PI3Kδ (Homo sapiens, UniProt O00329); assay: PI3K biochemical assay, PI3Kδ; details: PIP2 as substrate
Procedure: PI3Kα activity is measured as the percent of ATP consumed following the kinase reaction using luciferase-luciferin-coupled chemiluminescence. Reactions were conducted in 384-well white, medium binding microtiter plates (Greiner). Kinase reactions were initiated by combining test compounds, ATP, substrate (PIP2), and kinase in a 20 μL volume in a buffer solution. The standard PI3Kalpha assay buffer is composed 50 mM Tris, pH 7.5, 1 mM EGTA, 10 mM MgCl2, 1 mM DTT and 0.03% CHAPS. The standard assay concentrations for enzyme, ATP, and substrate are 1.5 nM, 1 μM, and 10 μM, respectively. The reaction mixture was incubated at ambient temperature for approximately 2 h. Following the kinase reaction, a 10 μL aliquot of luciferase-luciferin mix (Promega Kinase-Glo) was added and the chemiluminescence signal measured using a Victor2 plate reader (Perkin Elmer). Total ATP consumption was limited to 40-60% and IC50 values of control compounds correlate well with literature references. Substituting PI3Kα with PI3Kβ, PI3Kγ, or PI3Kδ, the inhibitory activity of the compounds for the other isoforms of I3K were measured.

[1] = test system: T-47D cells (PI3Kα-H1047R mutant); assay: pAKT (T308) ELISA assay, T-47D; format: cell-based; details: Homo sapiens, T47D
Procedure: In another embodiment, the pAKT ELISA Assay was performed by seeding cells onto 96-well plates (Corning, 3904) in their respective growth media at the densities listed in Table 3. Cells were incubated at 37° C., 5% CO2 for 48 h (except MDA-MB-453 cells which were cultured in the absence of CO2). Compounds were serially diluted in DMSO and subsequently diluted in serum-free DMEM. Test compounds were added to cells in serum-free DMEM at a final concentration of 0.3% DMSO and incubated for 3 h. Cells were lysed with 130 μL of ice-cold RIPA lysis buffer (50 mM Tris-HCl, pH 7.5; 0.5% sodium deoxycholic acid; 1% Triton X-100; 0.1% SDS; 150 mM NaCl) with protease and phosphatase inhibitors (1 mM EDTA, 1 mM NaF, 20 mM β-glycerophosphate, 1 mM Na-orthovanadate, Complete-Mini EDTA-free, Roche, 11836170001, and Phosphatase Inhibitor Cocktail I, Sigma, P2850), directly in 96-well plates. Cells were lysed on ice for 60-120 min at 4° C. The supernatants were added directly to capture ELISA plates previously pre-coated with rabbit anti-AKT capture antibody. […] The wells were measured for luminescence using a Wallac plate reader at wavelength of 560 nm. After normalization of pAKT signal to total AKT1 signal, IC50 values were determined relative to the DMSO-treated control.

mTOR/GbL/Raptor (mTORC1) = mTOR/GbL/Raptor (mTORC1) (Homo sapiens, UniProt P42345); assay: mTOR/GbL/Raptor (mTORC1) ELISA assay; format: biochemical
Procedure: The measurement of mTORC1 enzyme activity was performed in an ELISA assay format following the phosphorylation of 4E-BP1 protein. All experiments were performed in the 384-well format. Generally, 0.5 μL DMSO containing varying concentrations of the test compound was mixed with 15 μL enzyme solution. Kinase reactions were initiated with the addition of 15 μL of substrates-containing solution. The assay conditions were as follows; 0.2 nM mTORC1, 10 μM ATP and 50 nM NHis-tagged 4E-BP1 in 20 mM Hepes, pH 7.2, 1 mM DTT, 50 mM NaCl, 10 mM MnCl2, 0.02 mg/mL BSA, 0.01% CHAPS, 50 mM β-glycerophosphate. Following an incubation of 120 minutes at ambient temperature, 20 μL of the reaction volume was transferred to a Ni-Chelate-coated 384-well plate. The binding step of the 4E-BP1 protein proceeded for 60 minutes, followed by washing 4 times each with 50 μL of Tris-buffered saline solution (TBS). Anti-phospho-4E-BP1 rabbit-IgG (20 μL, 1:5000) in 5% BSA-TBST (0.2% Tween-20 in TBS) was added and further incubated for 60 minutes. Incubation with a secondary HRP-tagged anti-IgG was similarly performed after washing off the primary antibody (4 washes of 50 μL). Following the final wash step with TBST, 20 μL of SuperSignal ELISA Femto (Pierce Biotechnology) was added and the luminescence measured using an EnVision plate reader.

Sequence of PI3Kδ (O00329 whole entry): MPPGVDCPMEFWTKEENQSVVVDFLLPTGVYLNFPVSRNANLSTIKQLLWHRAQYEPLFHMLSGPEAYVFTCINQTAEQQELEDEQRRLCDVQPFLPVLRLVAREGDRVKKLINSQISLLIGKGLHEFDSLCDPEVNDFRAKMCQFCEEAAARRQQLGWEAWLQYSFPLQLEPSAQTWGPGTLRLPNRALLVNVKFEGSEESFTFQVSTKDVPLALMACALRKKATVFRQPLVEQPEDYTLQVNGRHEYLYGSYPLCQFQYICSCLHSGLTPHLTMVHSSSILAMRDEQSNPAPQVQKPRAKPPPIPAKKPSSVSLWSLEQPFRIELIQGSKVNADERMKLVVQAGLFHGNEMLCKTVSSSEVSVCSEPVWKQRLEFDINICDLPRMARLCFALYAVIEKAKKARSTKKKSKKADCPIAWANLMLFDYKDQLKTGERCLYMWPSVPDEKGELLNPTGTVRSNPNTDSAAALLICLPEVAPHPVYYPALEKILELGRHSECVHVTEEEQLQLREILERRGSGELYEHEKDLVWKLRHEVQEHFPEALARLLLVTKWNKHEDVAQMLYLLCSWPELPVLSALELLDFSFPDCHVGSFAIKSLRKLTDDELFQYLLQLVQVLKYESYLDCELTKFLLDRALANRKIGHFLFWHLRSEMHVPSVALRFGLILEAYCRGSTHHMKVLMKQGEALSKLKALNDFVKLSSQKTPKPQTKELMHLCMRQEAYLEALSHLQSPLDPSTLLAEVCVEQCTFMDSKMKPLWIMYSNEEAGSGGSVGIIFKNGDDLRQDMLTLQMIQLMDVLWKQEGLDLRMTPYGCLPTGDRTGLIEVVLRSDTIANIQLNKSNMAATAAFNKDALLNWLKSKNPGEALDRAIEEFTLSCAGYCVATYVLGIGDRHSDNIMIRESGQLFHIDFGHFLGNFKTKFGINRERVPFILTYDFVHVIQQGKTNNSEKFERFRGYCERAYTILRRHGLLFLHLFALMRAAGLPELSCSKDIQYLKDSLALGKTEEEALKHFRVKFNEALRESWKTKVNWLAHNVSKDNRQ
Sequence of PI3Kδ (P27986 whole entry partner): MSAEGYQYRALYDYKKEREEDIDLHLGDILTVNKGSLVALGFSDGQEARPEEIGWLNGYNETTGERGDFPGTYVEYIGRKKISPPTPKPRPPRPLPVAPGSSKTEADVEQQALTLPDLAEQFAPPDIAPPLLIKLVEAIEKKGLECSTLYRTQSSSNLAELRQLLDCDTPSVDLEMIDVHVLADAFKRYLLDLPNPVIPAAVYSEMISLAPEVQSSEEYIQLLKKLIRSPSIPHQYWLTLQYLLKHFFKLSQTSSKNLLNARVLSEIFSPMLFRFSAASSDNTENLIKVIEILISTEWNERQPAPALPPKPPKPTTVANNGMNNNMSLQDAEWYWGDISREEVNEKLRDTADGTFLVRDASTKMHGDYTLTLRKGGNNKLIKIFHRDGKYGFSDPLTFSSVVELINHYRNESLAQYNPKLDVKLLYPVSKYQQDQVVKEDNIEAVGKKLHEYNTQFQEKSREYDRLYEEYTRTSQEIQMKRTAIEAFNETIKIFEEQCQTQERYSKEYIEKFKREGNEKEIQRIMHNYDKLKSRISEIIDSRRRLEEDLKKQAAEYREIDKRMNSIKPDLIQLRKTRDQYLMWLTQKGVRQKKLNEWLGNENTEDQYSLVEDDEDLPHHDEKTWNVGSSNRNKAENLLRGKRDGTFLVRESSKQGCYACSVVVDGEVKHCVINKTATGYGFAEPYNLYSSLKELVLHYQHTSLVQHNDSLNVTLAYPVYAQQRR

IC50 (PI3Kδ): 0.142 µM | IC50 ([1]; IGF1 stimulation, Table 5, read-out: pAKT (T308) IC50 T-47D PI3Kα H1047R IGF1): 27.9 µM | IC50 ([1]; PI3KαH1047R, IGF1, Table 6, read-out: Cellular pAKT (T308) IC50 T-47D): 27.9 µM | IC50 (mTOR/GbL/Raptor (mTORC1); 4EBP1 as substrate for mTOR/GbL/raptor kinase, read-out: biochemical IC50 mTOR): 10.9 µM | IC50 (mTOR/GbL/Raptor (mTORC1); Table 5, read-out: Biochemical IC50 mTOR): 10.9 µM
Compound: Cc1cc(C(C)Nc2ccccc2)c2nc(N3CCOCC3)cc(=O)n2c1 (centres unmarked) [TGX-221, 7-methyl-2-(4-morpholinyl)-9-[1-(phenylamino)ethyl]-4H-pyrido[1,2-a]pyrimidin-4-one]

— patent US20140066431A1, “Benzoxazepines as Inhibitors of PI3K/mTOR and Methods of Their Use and Manufacture” (Exelixis, Inc., priority 2010, published 2014)
